In one test the test system is BEAS-2B cells. Put plainly: TNFα-stimulated BEAS-2B IL-8 release assay. Type of test: cell-based. Particulars: Homo sapiens, IC50 classes, TNF-α 10 ng/ml, 18 h, read-out: TNFα-stimulated BEAS-2B IL-8 release inhibition. In short, it runs like this: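 BEAS-2B cells at 80-90% confluence were pre-incubated 1 h with p38 inhibitors, then stimulated 18 h at 37 °C with TNF-α (10 ng/ml). Supernatant IL-8 was measured by ELISA. IC50 was taken from sigmoidal variable-slope fits of % inhibition of control release.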

For the next test, the target named is T1, p38alpha (Homo sapiens, UniProt Q16539).
T1 construct: purchased Invitrogen PV3304
The test can be described thus: P38alpha enzyme inhibition assay (Alphascreen kinase activity assay). It is filed as biochemical. Particulars: IC50 classes; 2 hours preincubation at 25° C., 250 μM ATP; read-out: p38α inhibition. In short, it runs like this:
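p38alpha with 0.3 μg/ml ATF-2 fusion protein in HEPES pH 7.5 buffer (10 mM MgCl2, 2 mM DTT, 1% DMSO); compounds preincubated 2 h at 25° C, then 250 μM ATP added for 1 h at 25° C. Phospho-ATF2 detected by AlphaScreen luminescence with anti-phospho-ATF2 antibody; IC50 from concentration-response curves.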
In general terms: Alpha assays give light when donor and acceptor beads are brought close together.

The test system of test [1] is Peripheral Blood Mononuclear Cells (PBMCs). The test can be described thus: LPS-stimulated PBMC TNFα release assay. Type of test: cell-based. Particulars: IC50 classes; human PBMC, LPS 10 ng/ml, 18 h; read-out: LPS-stimulated PBMC TNFα release inhibition. In short, it runs like this: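 Human PBMCs from healthy donors, adhered 3 h in serum-free RPMI, received compound for 1 h in 1% FBS medium before 10 ng/ml LPS for 18 h. Supernatant TNFα was measured by MSD; IC50 from percentage inhibition of control release, at least three separate experiments.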

T1 sequence (Q16539 whole entry): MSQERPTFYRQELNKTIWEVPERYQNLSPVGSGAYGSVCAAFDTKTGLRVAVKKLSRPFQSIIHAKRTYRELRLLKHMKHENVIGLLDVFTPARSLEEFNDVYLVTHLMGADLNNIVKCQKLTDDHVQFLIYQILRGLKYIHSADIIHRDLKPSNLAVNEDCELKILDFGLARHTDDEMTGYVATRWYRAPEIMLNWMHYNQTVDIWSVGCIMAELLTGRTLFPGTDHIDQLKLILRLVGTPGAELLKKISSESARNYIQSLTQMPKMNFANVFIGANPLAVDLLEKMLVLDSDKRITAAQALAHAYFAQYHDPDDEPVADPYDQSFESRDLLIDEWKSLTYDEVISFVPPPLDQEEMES

Turning to `CNC(=O)c1cc(NC(=O)N[C@H]2CC[C@@H](Oc3ccc4nnc([C@@H]5CCCN5C)n4c3)c3ccccc32)cc(C(C)(C)C)c1` [Example 54, 3-tert-Butyl-N-methyl-5-(3-{(1S,4R)-4-[3-((S)-1-methyl-pyrrolidin-2-yl)-[1,2,4]triazolo[4,3-a]pyridin-6-yloxy]-1,2,3,4-tetrahydro-naphthalen-1-yl}-ureido)-benzamide], the values for the IC50 (in the test on BEAS-2B cells; at p38alpha; in test [1]) were more than 1 nM, less than 1 nM and 1 to 5 nM, respectively.

Source of the values: US10100050B2 (CHIESI FARMACEUTICI S.P.A., priority 2015, dated 2018).
